Target: T1, Serine/threonine-protein (Bos taurus, UniProt A0A3Q1MT31)
T1 construct: gene GSK3B
Test: Inhibition Assay
Settings: pH 6.5; 25 °C
Experimental: A mixture containing 100 mM MES-sodium hydroxide (pH 6.5), 1 mM magnesium acetate, 0.5 mM EGTA, 5 mM beta-mercaptoethanol, 0.02% Tween 20, 10% glycerol, 12 ug/ml P-GS1, 41.7 uM [gamma-32P] ATP (68 kBq/ml), bovine cerebral TPK1 and a compound shown in Table (a final mixture contained 1.7% DMSO deriving from a solution of a test compound prepared in the presence of 10% DMSO) was used as a reaction system. The phosphorylation was started by adding ATP, and the reaction was conducted at 25 C. for 2 hours, and then stopped by adding 21% perchloric acid on ice cooling. The reaction mixture was centrifuged at 12,000 rpm for 5 minutes and adsorbed on P81 paper (Whatmann), and then the paper was washed four times with 75 mM phosphoric acid, three times with water and once with acetone. The paper was dried, and the residual radioactivity was measured using a liquid scintillation counter.

T1 sequence (A0A3Q1MT31 1-419): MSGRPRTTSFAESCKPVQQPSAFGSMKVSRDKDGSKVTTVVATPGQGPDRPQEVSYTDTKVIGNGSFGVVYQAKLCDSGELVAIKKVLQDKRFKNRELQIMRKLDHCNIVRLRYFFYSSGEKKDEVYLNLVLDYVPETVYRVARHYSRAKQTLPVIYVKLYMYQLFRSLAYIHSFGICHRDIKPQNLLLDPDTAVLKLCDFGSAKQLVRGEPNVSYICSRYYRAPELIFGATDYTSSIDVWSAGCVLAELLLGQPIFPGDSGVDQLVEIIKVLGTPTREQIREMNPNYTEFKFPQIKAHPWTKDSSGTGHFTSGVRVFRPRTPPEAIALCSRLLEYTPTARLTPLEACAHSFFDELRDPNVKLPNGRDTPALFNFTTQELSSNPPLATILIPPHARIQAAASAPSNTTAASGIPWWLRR

Row | SMILES | IC50
1 | C[C@@H]1COCCN1c1nc(-c2ncncc2F)cc(=O)n1C [US8940738, 2] | 19.7 nM
2 | Cn1c(N2CCOC[C@H]2CF)nc(-c2ncncc2F)cc1=O [US8940738, 3] | 33.4 nM
3 | Cc1cccc(N2CCN(c3nc(-c4ncncc4F)cc(=O)n3C)CC2)c1C [US8940738, 7] | 78.3 nM
4 | Cc1nc(-c2ccc([C@H]3CN(c4nc(-c5ccncn5)c(O)c(=O)n4C)CCO3)cc2)no1 [US8940738, 11] | 6.7 nM

More lines, now with the values ahead:

Row | IC50 | SMILES
5 | 75.3 nM | COc1ccc(CCNc2nc(-c3ncncc3F)cc(=O)n2C)cc1OC [US8940738, 8]
6 | 165 nM | CN(CCc1ccc([N+](=O)[O-])cc1)c1nc(-c2ncncc2F)cc(=O)n1C [US8940738, 10]
7 | 8.4 nM | Cc1nc(-c2ccc([C@H]3CN(c4nc(-c5ncncc5F)cc(=O)n4C)CCO3)cc2)no1 [US8940738, 4]
8 | 608 nM | Cn1c(NCC(=O)c2ccc(Cl)cc2)nc(-c2ncncc2F)cc1=O [US8940738, 9]
9 | 33.1 nM | Cn1c(N2CCCC(c3ccc(N4CCCC4)cc3)C2)nc(-c2ncncc2F)cc1=O (centres undefined) [US8940738, 5]
